Data: article PMC13489962, “Small-molecule modulation of β-arrestins” (Nature, 2026)
“Also recorded” adds a separate entry of the source.

What was measured:
βARR1–ERK2 interaction = target: T1, βARR1–ERK2 interaction (Rattus norvegicus, UniProt P29066); test: Flag pulldown of βARR1 with ERK2; format: biochemical; settings: 20-fold molar excess of compound, 30 min
T1 construct: βARR1 or βARR2 construct, with their C terminus truncated (at amino acid 393 or 394, respectively); GST (pGEX4T1) (N, cleaved yes); made in house
T1 sequence (P29066 1-393): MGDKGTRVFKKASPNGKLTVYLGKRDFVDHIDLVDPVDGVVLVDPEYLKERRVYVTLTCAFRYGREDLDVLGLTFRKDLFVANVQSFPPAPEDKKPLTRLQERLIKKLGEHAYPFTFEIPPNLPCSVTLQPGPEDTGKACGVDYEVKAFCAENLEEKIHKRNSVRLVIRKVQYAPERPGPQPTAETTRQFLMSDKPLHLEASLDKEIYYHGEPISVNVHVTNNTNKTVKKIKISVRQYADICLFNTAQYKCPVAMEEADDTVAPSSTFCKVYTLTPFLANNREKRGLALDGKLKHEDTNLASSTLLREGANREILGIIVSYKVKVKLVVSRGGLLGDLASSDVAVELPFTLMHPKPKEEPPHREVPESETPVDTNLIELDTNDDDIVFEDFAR
Procedure: (§1) To assess the effects of the compounds on βARR1 interactions with its effector proteins SRC and JNK3, βARR1–Flag (5 μM) was incubated with a 20-fold molar excess of Cmpd-5, Cmpd-46 or Cmpd-64 for 30 min at room temperature. Subsequently, 15 μM of SRC or JNK3 was added. To evaluate compound effects on βARR1–ERK2 binding, βARR1 (15 μM) was pre-incubated with a 20-fold molar excess of Cmpd-5, Cmpd-46 or Cmpd-64 for 30 min at room temperature, followed by the addition of 5 μM ERK2–Flag. Afterward, 50 μl of anti-Flag M2 affinity gel (Millipore Sigma) was added, and the mixtures were incubated for 1 h at room temperature with rotation. The resin was then collected by centrifugation and washed 3 times with 1 ml of 20 mM HEPES (pH 7.5), 100 mM NaCl. Bound proteins were eluted using 0.2 mg ml^−1 Flag peptide in 20 mM HEPES (pH 7.5), 100 mM NaCl, mixed with Laemmli sample buffer (Bio-Rad), and analysed by SDS–PAGE followed by western blotting. Detection was performed using monoclonal anti-Flag M2-peroxidase (HRP) antibody (1:2,000, Sigma-Aldrich A8592, RRID:AB_439702) for βARR1–Flag and ERK2–Flag; polyclonal A1CT antibody[76] (1:5,000) for βARR1; anti-SRC monoclonal antibody (1:10,000, EMD Millipore 05-184, RRID:AB_2302631) for SRC; and anti-JNK3 monoclonal antibody (1:5,000, Cell Signaling 2305, RRID:AB_2281744) for JNK3. Western blot images were taken using Bio-Rad ChemiDoc system and the densitometry analysis was performed by ImageLab v6.1 and statistical differences were determined by one-way ANOVA with Dunnett’s post hoc test in GraphPad Prism software.

[1] = system: adult ventricular cardiomyocytes (AT1R); test: Adult ventricular cardiomyocyte contractility; format: cell-based, mouse; settings: 25 μM, 20 min; TRV027 10 μM; paced at 1 Hz
Procedure: All animal experiments were approved by the Institutional Animal Care and Use Committee (IACUC) at Duke University Medical Center and performed in accordance with relevant guidelines and regulations. Ventricular cardiomyocytes were freshly isolated from 12- to 16-week-old C57BL/6J wild-type mice using a standard Langendorff perfusion system[39],[74]. The heart was initially cannulated through the aorta and then perfused with an oxygenated buffer at 37 °C (120 mM NaCl, 14.8 mM KCl, 0.6 mM KH2PO4, 0.6 mM Na2HPO4, 1.2 mM MgSO4·7H20, 10 mM HEPES, 4.6 mM NaHCO3, 30 mM taurine, and 5.6 mM glucose, pH 7.3). After 2 min, the buffer was switched to a digestion solution containing 2.4 mg ml^−1 collagenase (Worthington). Following 8 min of digestion, ventricles were transferred to a stopping buffer that included 10% calf serum. Myocytes were then manually dissociated and gradually brought to a physiological Ca^2+ concentration (1.2 mM). Isolated cardiomyocyte was first pretreated with DMSO (0.1%), C5, C46 or C64 (25 µM) for 20 min followed by treatment with HBSS (basal), angiotensin II (positive control, 10 µM) or TRV027 (10 µM). Cells were plated in a chamber (Ionoptix) on a Nikon Eclipse TE300 inverted microscope (40× 0.9 NA objective, MRF00400, Nikon). Cardiomyocytes were paced at 1 Hz and 20 V (MyoPacer, Ionoptix), and sarcomere length was recorded by a MyoCam-S camera (Ionoptix). Ten consecutive contractions per cell (7–12 cells per condition) were averaged to quantify contractility and kinetic parameters (IonWizard 7.2). […] Sample size represents the number of hearts at each condition derived from an average of 7–12 cells per heart for each condition. Statistical comparisons between conditions were performed using one-way ANOVA followed by Sidak post hoc test.

βARR1–SRC interaction = target: T2, βARR1–SRC interaction (Rattus norvegicus, UniProt P29066); test: Flag pulldown of βARR1 with SRC; format: biochemical; settings: 20-fold molar excess of compound, 30 min
T2 construct: made in house
T2 sequence (P29066 whole entry): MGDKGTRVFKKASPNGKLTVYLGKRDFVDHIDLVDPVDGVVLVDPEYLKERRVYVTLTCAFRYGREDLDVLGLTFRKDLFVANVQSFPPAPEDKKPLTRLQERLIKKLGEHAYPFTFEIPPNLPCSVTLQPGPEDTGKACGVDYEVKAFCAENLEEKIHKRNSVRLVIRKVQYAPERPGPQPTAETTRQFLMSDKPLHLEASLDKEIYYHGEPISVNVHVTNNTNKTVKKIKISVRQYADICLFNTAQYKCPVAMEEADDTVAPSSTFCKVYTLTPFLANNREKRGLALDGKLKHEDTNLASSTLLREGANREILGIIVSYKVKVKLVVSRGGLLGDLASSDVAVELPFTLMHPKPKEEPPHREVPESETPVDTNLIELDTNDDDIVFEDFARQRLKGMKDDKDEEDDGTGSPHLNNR
Procedure: as §1

Gαi = test: ITC binding to purified Gαi
Procedure: ITC measurements were performed on a MicroCal iTC200 system at 25 °C. Prior to ITC experiments, all proteins (βARR1, βARR2 or βARR1 mutants) were extensively dialysed against 20 mM HEPES (pH 7.4), 100 mM NaCl, and 3 μM TCEP. Protein concentrations were determined by spectrophotometry at 280 nm, using extinction coefficients calculated from each protein sequence via the ProtParam program. The dialysis buffer was used to dilute DMSO stock solutions of β-arrestin small-molecule modulators to their final concentrations for measurements. For each ITC experiment, β-arrestin modulators (Cmpd-5 at 350 μM, Cmpd-46 at 450 μM, and Cmpd-64 at 450 μM) were loaded into the syringe and titrated into the calorimetric cell containing βARR1, βARR1 mutants or βARR2 (at about 30–40 μM, depending on the protein and experiment). Additional ITC experiments were also performed using purified GST-fused Gα subunits (Gαs, Gαq and Gαi; about 30 μM) and Gαiβγ heterotrimer (about 30 μM). Gα subunits were prepared in the same buffer (20 mM HEPES, pH 7.4, 100 mM NaCl, 3 μM TCEP), whereas the Gαiβγ heterotrimer was maintained in buffer supplemented with 0.05% DDM and 10 μM GDP, with matched DMSO carrier conditions. Modulators (300 μM) or corresponding DMSO controls were loaded and titrated as described above. The reference cell was filled with distilled water. In all experiments, the titration sequence typically consisted of an initial 0.4 μl injection, followed by 19 injections of 2 μl each, with a 180-s interval between injections to allow thermal power to return to baseline. During the experiment, the reference power was set to 7 μcal s^−1, and the sample cell was stirred continuously at 750 rpm. […] Data were analysed and fit using a one-site independent binding model to obtain the equilibrium dissociation constant, Kd (from the association constant Ka = 1/Kd), stoichiometry (N), and thermodynamic parameters including enthalpy (ΔH) and entropy (−TΔS) of binding. Data were analysed using MicroCal PEAQ-ITC analysis software (v1.1.0.1262).

Compound	effect on βARR1 binding to ERK2 (βARR1–ERK2 interaction)	effect on TRV027-enhanced sarcomere shortening, contraction and relaxation velocity [1]	effect on βARR1 binding to SRC (βARR1–SRC interaction)	binding to Gαi (Gαi)
C=C1C(=O)[C@]23[C@H](O)[C@H]1CC[C@H]2[C@@]12CO[C@]3(O)[C@@H](O)[C@@H]1C(C)(C)CC[C@@H]2O [Cmpd-5, (1S,4aR,5S,6S,6aR,9S,11aS,11bS,14R)-1,5,6,14-tetrahydroxy−4,4-dimethyl-8-methylenedecahydro-1H-6,11b-(epoxymethano)-6a,9-methanocyclohepta[a]naphthalen-7(8H)-one]	reduced; also recorded: significantly inhibited	significantly inhibited	reduced	no measurable affinity
C=C1C(=O)OC2CC3(C)OC3CCC(C)=CC(OC(C)=O)C12 (stereo not drawn) [Cmpd-64, (Z)-4,10a-dimethyl-7-methylene-8-oxo-1a,2,3,6,6a,7,8,9a,10,10a decahydrooxireno[2’,3’:8,9]cyclodeca[1,2-b]furan-6-yl acetate]	reduced	significantly inhibited	markedly reduced	very weak binding
C=C1C(=O)C2=CC1CCC(=O)C1(C)CCC(OCC)C(C)(C)C1CC2O (stereo not drawn) [Cmpd-46, (Z)-3-ethoxy-6-hydroxy-4,4,13a-trimethyl-9-methylene-1,2,3,4,4a,5,6,9,10,11,12,13a-dodecahydro-7,10-(metheno)benzo[11]annulene-8,13-dione]	reduced	significantly inhibited	markedly reduced	no measurable affinity
